# According to PubChem BioAssay (NCI):
#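 Step 1: Grow cells in 96-well plates. Step 2: Expose to compound for 48 hours at 5 concentrations. Step 3: Interpolate endpoints linearly; if unreached, use highest concentration. At the GI50, growth is halved. TGI is the concentration that stops growth completely.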 Where a SMILES comes first, the peptide text is derived from it. Peptide text beside a SMILES is read from it. The star is where a group is joined. * marks the point of attachment. Palmitoyl = CCCCCCCCCCCCCCCC(=O)*; Boc = CC(C)(C)OC(=O)*
# How the values were obtained:
# Experiment in all cases: NCI tumour cell line growth inhibition, 48 h
# [1] = tested on: OVCAR-4 ovarian
# [2] = tested on: SK-OV-3 ovarian
# [3] = tested on: HOP-62 NSCLC
# [4] = tested on: RXF 393 renal
# [5] = tested on: IGROV1 ovarian
# [6] = tested on: EKVX NSCLC
# [7] = tested on: COLO 205 colon
# [8] = tested on: SN12C renal
# [9] = tested on: NCI-H23 lung
# [10] = tested on: BT-549 breast
Compound,TGI [1] [µM],TGI [2] [µM],TGI [3] [µM],TGI [4] [µM],TGI [5] [µM],TGI [6] [µM],TGI [7] [µM],TGI [8] [µM],TGI [9] [µM],TGI [10] [µM],GI50 [1] [µM],GI50 [10] [µM],GI50 [2] [µM],GI50 [3] [µM],GI50 [4] [µM],GI50 [5] [µM],GI50 [6] [µM],GI50 [7] [µM],GI50 [9] [µM]
CCN(CC)c1ccc(C(=C2C=CC(=[N+](CC)CC)C=C2)c2ccccc2)cc1,0.488,0.0854,0.491,0.0989,0.247,0.581,0.136,0.0878,0.0929,,,,,,,,,,
COc1ccc([C@@]23CCC(=O)C[C@@H]2N(C)CC3)cc1OC,> 100,> 100,> 100,> 100,> 100,> 100,> 100,,> 100,,,,,,,,,,
Cc1cc(S(=O)(=O)NC(=NCC(=O)NN)NN)c(S)cc1Cl,> 10,> 10,> 10,> 10,> 10,> 10,> 10,> 10,> 10,> 10,,,,,,,,,
COC1(OC)N=C(N)C2(C#N)/C(=N/N(C)C)CC(C)C12C#N (stereo unspecified),,> 100,> 100,> 100,> 100,> 100,> 100,> 100,> 100,,,,,,,,,,
CSCCC(NC(=O)C(CC(C)C)NC(=O)CNC(=O)OC(C)(C)C)C(=O)N(C)C (stereo not drawn) (Boc-Gly-Leu-Met-NMe2; configuration not given here),> 100,> 100,,> 100,> 100,> 100,> 100,> 100,> 100,> 100,,,,,,,,,
CC(=O)Nc1ncc2c(n1)-c1ccccc1OC2,> 100,> 100,,> 100,> 100,> 100,> 100,> 100,> 100,> 100,,,,,,,,,
COC(=O)C1(Cc2ccccc2)Cc2ccccc2C1=O (stereo unspecified),> 100,> 100,> 100,,> 100,> 100,> 100,> 100,> 100,,,,,,,,,,
COc1ccc(S(=O)(=O)Nc2ccc(-c3csc(N4C(=O)/C(=C/C=C\c5ccccc5)N=C4c4ccccc4)n3)cc2)cc1Cl,88.9,> 100,> 100,62.5,56.5,,> 100,> 100,42.4,,,,,,,,,,
CC(=O)OCC1OC(n2c3c(c(-c4ccco4)c(C#N)c2=S)CCCC3)C(OC(C)=O)C(OC(C)=O)C1OC(C)=O (stereo unspecified),> 31.6,,21.8,,> 31.6,29.8,> 31.6,> 31.6,> 31.6,,,,,,,,,,
COC(=O)C(Cc1ccccc1)NC(=O)CCCNC(=O)OCc1ccccc1 (stereo unspecified),> 100,> 100,> 100,,> 100,> 100,> 100,> 100,> 100,> 100,,,,,,,,,
CCCCCCCCCCCCCCCC(=O)NC(CCCCN)C(=O)NCC(=O)NC(Cc1ccccc1)C(=O)N1CCCC1C(=O)NC(CO)C(=O)NC(Cc1ccc(O)cc1)C(=O)NC(CCCCN)C(=O)NC(CC(C)C)C(=O)NC(CCCN=C(N)N)C(=O)N1CCCC1C(=O)NCC(N)=O (stereo unspecified) (Palmitoyl-KGFPSYKLRPG-NH2; configuration not given here),78.7,44.7,53.6,69.4,44.3,44,41.1,,55.6,50.4,30.5,24.1,23,24.4,27.6,17.8,18.8,19.6,23.9
CSc1nc(Br)nc2c1ncn2C1CC(Oc2ccc(C)cc2)C(COc2ccc(C)cc2)O1 (stereo unspecified),> 100,> 100,> 100,,> 100,> 100,> 100,> 100,> 100,> 100,,,,,,,,,
COC(=O)CCc1ccc2c(c1)CC1(C2)Cc2ccc(CCC(=O)OC)cc2C1,> 100,> 100,> 100,> 100,> 100,> 100,> 100,> 100,> 100,,,,,,,,,,
O=C(CCN1CCCCC1CO)Nc1ccc2c(c1)C(=O)c1ccc(NC(=O)CCN3CCCCC3CO)cc1C2=O (stereo unspecified),27.1,46.2,64.2,7.45,23.1,47,21.7,25.5,38.1,,,,,,,,,,
BrCC[P+](c1ccccc1)(c1ccccc1)c1ccccc1,23.1,66.4,20.2,8.02,29.1,12.8,17.6,8.39,,39.6,,,,,,,,,
C=CCOn1c(C=C)nc2c(C)cccc21,24,12.5,22,,22.7,29.2,3.6,13.2,24.1,19.1,,,,,,,,,
COc1cc([C@@H]2c3cc4c(cc3[C@@H](Nc3ccc(Cl)cc3C(=O)c3ccccc3Cl)[C@H]3COC(=O)[C@H]23)OCO4)cc(OC)c1OC,> 100,> 100,16.9,> 75.3,,> 100,,> 100,> 53.8,> 100,,,,,,,,,
COC(=O)c1ccc(OCc2ccc3nc(-c4ccccc4)c(Cl)nc3c2)cc1,> 100,,> 100,,> 100,> 100,> 100,> 100,> 100,> 100,,,,,,,,,
Fc1nc(F)nc(-c2c3ccccc3c3n2CCS3)n1,> 100,> 100,> 100,> 100,> 100,> 100,> 100,> 100,> 100,,,,,,,,,,
COc1cc2c(cc1OC)C1Cc3ccccc3CN1CCC2 (stereo unspecified),> 100,> 100,> 100,> 100,> 100,> 100,> 100,> 100,> 100,,,,,,,,,,
C=C(CCC(C(=O)O)C1CCC2(C)C3=C(CCC12C)C1(C)CCC(O)C(C)(C)C1CC3)C(C)C (stereo unspecified),> 100,> 100,> 100,,63.1,> 100,> 100,> 100,> 100,> 100,,,,,,,,,
